The source of these data is patent publication US20240245682A1, “ALPHA-V-BETA-8 INTEGRIN INHIBITORS AND USES THEREOF” (Pliant Therapeutics, Inc., priority 2022, published 2024).

Entries after “also recorded” stand apart in the source; their conditions may differ.

For one series, the system named is Pan02 tumors. Briefly: Pan02 (pancreatic) syngeneic tumor model (Example B6). In kind it is in vivo, C57BL/6 mice. As for the experimental part: The therapeutic impact of Compound 39 of the examples in combination with anti PD-1 was studied for several […] mouse models, as shown in Table B-3. For each model, four dosing regimens were studied, using a group size of 10 mice per dosing regimen per model, and a total of 40 mice per model.
Mice were shaved and tumor cells as indicated in Table B-3 were subcutaneously implanted in a 100 μl cell suspension that was subcutaneously injected into the front/rear flank of each mouse (as indicated in Table B-3).
There was no dosing holiday. Dietary supplements were uniform for all animals in the same group.
Animals were monitored weekly for changes in tumor volume. Tumors were measured at least once a week using calipers. Tumor volume was calculated using the equation: (longest diameter*shortest diameter^2)/2. […]
Tumor tissues (50 to 80 mg) were homogenized using metal beads in pre-chilled RINO screw cap tubes, using lysis matrix (MP Lysing Matrix S [⅛″], 2 mL Tube MP Biomedical Cat #116925100) on MP Fast Prep 24 instrument. […] Hybridized reactions were read on nCounter MAX (Nanostring), and data were analyzed using nCounter software.
Table B-5 lists the catalog numbers of the antibodies used in the immunohistochemical (IHC) studies. Quantification of staining was done using the HALO software package (Indica Labs, Albaquerque, NM).

Series [1] relates to primary human cancer associated fibroblasts (CAFs). Put plainly: CAF adhesion to TGFβ latency-associated peptide (LAP), high-content imaging. Format: cell-based. As for the experimental part: (§1) Integrin αVβ1 is expressed in multiple solid tumors and drives the adhesion of cancer-associated fibroblasts (CAFs) to latent TGFβ. In human tumor tissues and in CAFs, αVβ1 protein expression was evaluated via immunohistochemistry (IHC) and custom […] assay, respectively. CAF adhesion to the TGFβ latency-associated peptide (LAP) was quantified in the presence or absence of Compound 39 in vitro by high-content microscopy imaging. The activity of Compound 39 in combination with anti-mPD-1 on fibrotic markers was evaluated in the EMT6 tumor model in vivo by gene expression analysis using the Nanostring® nCounter analysis system. Compound 39-treated human breast tumor tissue was analyzed for fibrotic marker α-smooth muscle actin (αSMA) using immunofluorescence.
(§2) αvβ1 protein expression was evaluated in human tumor tissues via immunohistochemistry. αvβ1 protein levels in primary human CAFs isolated from pancreatic carcinoma, lung adenocarcinoma, and lung squamous cell carcinoma were quantified via custom electrochemiluminescence assay. CAF adhesion to latency associated peptide (LAP), the integrin-binding region of latent TGF-β, was quantified in the presence or absence of Compound 39 of the examples and a small molecule selective inhibitor of αvβ1 by high-content imaging in vitro. […]

In series [2] the test system is human breast tumor tissue. Briefly: Ex vivo cultured human breast tumor tissue, immunofluorescence of fibrotic markers. Format: cell-based. As for the experimental part:
as §1, §2

Series [3] deals with human breast and melanoma tumor tissues. Briefly: Ex vivo cultured human breast and melanoma tumor tissues (Example B9). In kind it is cell-based. As for the experimental part: Inhibition of αvβ1 and TGF-β mediated by Compound 39 of the examples was monitored via cell adhesion assays and transcriptomic analyses. αvβ1 protein expression was evaluated on human tumor tissues via immunohistochemistry using an indigenously developed anti-αvβ1 antibody. Efficacy of Compound 39 monotherapy and in combination with ICB was evaluated in syngeneic mouse models bearing EMT6 and Pan02 tumors. Animal survival, tumor growth, transcriptomic analyses, tissue fibrosis, and TILs were monitored along with circulating lymphocytes and cytokines. Tissue and circulating biomarkers of response to Compound 39 were identified. Human breast and melanoma tumor tissues were cultured ex vivo and Compound 39 activity was assessed by measuring CD8+ cytotoxic T cells and tumor apoptosis.

Another series has as its system TKCC-10 PDX. Put plainly: Orthotopic TKCC-10 (PDX-10) PDX model of PDAC (Example B12). Format: in vivo, NSG mice. How it is done: (§3) Table B-9 depicts the study design to determine the efficacy of selective αvβ1/αvβ8 SMI in the orthotopic ECM-high PDX models of PDAC. Table B-10 depicts the study design for the TKCC-10 PDX model.
TKCC-10 PDX bearing mice were treated with dose regimen according to the schematic in Table B-9 and FIG. 24A depicts a schematic diagram of the treatment regimen in the TKCC-10 mice. FIG. 24B depicts a graph showing final tumor weight for TKCC-10 PDX bearing mice after treatment with G/A, Compound 39, and Compound 39+G/A. FIG. 24C depicts a graph showing final tumor weight for TKCC-10 PDX bearing mice after treatment with G/A, ADWA-11, and ADWA-11+G/A.

A further series concerns TKCC-08 tumors. Briefly: Subcutaneous FNX-resistant TKCC-08 PDX model of PDAC (Example B12). In kind it is in vivo, NSG mice. As for the experimental part: as §3
Table B-12 depicts the study design for the TKCC-08 model.
FNX is a standard of care chemotherapy regimen for pancreatic ductal adenocarcinoma. However, the clinical response to FNX remains bleak. To assess if Compound 39 augmented the therapeutic benefit of FNX, Compound 39 was tested alone and in combination with FNX in the TKCC-08 model, which is made FNX-resistant by continuous exposure to the FNX.

The test system of a further series is KPC tumors. Put plainly: Orthotopic KPC syngeneic model of PDAC (Example B11).

Description for KPC tumors: The preclinical efficacy of Compound 39 of the examples was determined in genetically-defined (LSL-KrasG12D/+; LSL-Trp53R172H/+; Pdx1-Cre (KPC), and Pan02) and genomically diverse patient-derived PDA xenograft models. Clinically relevant combinations with standard of care (SoC) chemotherapy and anti-programmed death receptor-1 antibody (anti mPD-1) were tested by monitoring tumor growth, metastasis, and animal survival. Mechanistic assessment of alterations in the tumor microenvironment (TME) was performed using transcriptomic, immunohistochemical, and immunofluorescence approaches.
Animals were prepared for injection using standard approved anesthesia. Mice were shaved and tumor cells 500 KPC cells were orthotopically implanted (in pancreas) in a 100 μL cell suspension.
Tumor cells were allowed to form pancreatic tumors for one week. Mice were randomized into groups and treated with indicated compounds and dose regimens according to the schema outlined in Table B-7.
Compound 39 was administered in a solution containing 10% v/v ethanol, 70% w/v propylene glycol, and 20% v/v PBS and administered to mice via oral gavage at a dose of 300 mg/kg body weight over the duration of 22 days (for timepoint study) or 80 days (survival study). The mAbs, anti-mPD-1 and anti-αVβ8, were each administered in PBS by intraperitoneal injection at a dose of 10 mg/kg body weight twice a week (for 2 weeks).
Since these were orthotopic tumors, tumor volume measurement was not possible. Tumor weights were determined at the end of the study. Additionally, body weight of mice and any change in behavior/appearance were monitored twice a week for any signs of discomfort/toxicity.
The study was terminated either at 22 days after the first dose, or at 80 days for the survival study. Mice were euthanized and tumors were collected. Half of the tumor was snap frozen in liquid nitrogen and the other half was fixed in formalin.
Formalin (10%) fixed tissues were sent to Histowiz (a clinical research organization providing complete histology services) for paraffin embedding and sectioning. Using standard protocols optimized by Histowiz, tissue sections were stained for hematoxylin and eosin and immunostained for CD8, CD4, Cleaved caspase-3, and FoxP3, which are specific membrane markers for cytotoxic, helper, and regulator T cells, respectively. Additionally, tissues were stained with Pico Sirius Red (PSR) and second harmonic imaging (SHG) analysis was performed to evaluate stromal collagen density.

`Cc1ncnc(Cl)c1C1(C(=O)N[C@@H](CCOCCCCc2ccc3c(n2)NCCC3)C(=O)O)CC1` [Compound 39, N-(1-(4-chloro-6-methylpyrimidin-5-yl)cyclopropane-1-carbonyl)-O-(4-(5,6,7,8-tetrahydro-1,8-naphthyridin-2-yl)butyl)-L-homoserine]: the tumor growth result with Pan02 tumors (Pan02, FIG. 16A, 41) is given as “inhibited Pan02 tumor growth”. Moreover, the “CD8^+ T cell infiltration” value in the series with Pan02 tumors (in words, FIG. 16B, 43) is reported as “increased T-cell infiltration”. Besides, in series [1] (LUAD, LUSC and pancreatic stellate CAFs, FIG. 103-105), the “adhesion of CAFs to LAP” value is “inhibits the adhesion of LUAD, LUSC, and PSC CAFs to TGFβ latency-associated peptide in a dose-dependent manner; also recorded: blocked the binding of CAFs to LAP; also recorded: significantly block in vitro binding of primary human CAFs to LAP”. Further, in series [1] (cell adhesion assays), the “binding of latency associated peptide (LAP) to αvβ1” value was “prevented”. The “reduction of fibroblast activation marker αSMA” value in series [2] (compared to vehicle-treated tissues, FIG. 106) was 2.9 fold. Moreover, the “expression of fibrotic markers (αSMA, FAP)” value in series [2] (in words) was “decreases; also recorded: reduced expression of fibrotic markers αSMA and FAP”. The “cytotoxic CD8^+ T cells” value in series [3] is “significant increase in cytotoxic CD8^+T cells”. The fibrotic markers entry in series [3] was “reduction in fibrotic markers”. In addition, the mean tumor weight in the series with TKCC-10 PDX (30 days, Compound 39 300 mg/kg BID oral, G 100 mg/kg / A 30 mg/kg i.p. once per week, FIG. 24B) was 0.798 ± 0.17 g; with TKCC-08 tumors (FNX-resistant subcutaneous tumors, Compound 39 300 mg/kg BID oral, FNX i.v. weekly, FIG. 27B), 0.4 ± 0.15 g; in the series with KPC tumors (22 day timepoint, Compound 39 300 mg/kg oral gavage, mAbs 10 mg/kg i.p., FIG. 20B), 0.44 ± 0.9 g. Moreover, in the series on TKCC-10 PDX (FIG. 25D), the “mean number of lung metastases” value worked out at 4.1±3.2. Further, in the series with TKCC-10 PDX (in words, FIG. 24C, 73), the “tumor weight / tumor growth” value was “significantly blocked tumor growth and improved the response to the standard of care (SOC) chemotherapy G/A”. For the same compound, the “tumor growth and tumor weight” value in the series with TKCC-08 tumors (in words, FIG. 27A, 27B) is “significantly reduced the tumor growth and the tumor weight”. Further, the “collagen content (PSR, SHG imaging)” value with KPC tumors (FIG. 22A, 22B) was “significantly reduced the collagen content”. Also, the “reduction in tumor weight compared with vehicle” value in the series with KPC tumors (FIG. 79) worked out at 45%. Moreover, in the series with KPC tumors (IHC, FIG. 21A), the “avg % CD8^+ T cells/ROI, invasive (leading) edge” value is on record as 3.06±1.05%. Besides, the “avg % CD8^+ T cells/ROI, internal tumor” value in the series on KPC tumors (IHC, FIG. 21B) was 2.02±0.77%. Also, the “disease progression / overall survival” value in the series on KPC tumors (in words, FIG. 23, 46, 47) is on record as “delayed disease progression in vivo; also recorded: improved overall survival compared to α-PD-1”. In the series on KPC tumors (in words, compared to vehicle, FIG. 21E, 21F), the “CD4^+ T cells” value is recorded as “did not show any significant difference in CD4^+ T cells”. The “median survival (median OS)” value in the series with KPC tumors (survival study up to 80 days, FIG. 23B, 23C) is reported as 45 days.
